Source: ChEMBL document CHEMBL1201862, “PubChem BioAssay data set” (2004)
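These data come from cells grown in 96-well plates and exposed to compound for 48 hours at five concentrations. GI50 = concentration required for 50% inhibition of growth.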 Calls of active or inactive are those of the source. Rule as the data show it: active = GI50 up to about 1.1 µM and inactive = higher.

Key:
Assay in all cases: NCI anticancer screen, dose series, 48 h
[1] = test system: KM12
[2] = test system: SF-539
[3] = test system: HCT-116
[4] = test system: SW-620
[5] = test system: UO-31
[6] = test system: HL-60
[7] = test system: SK-MEL-28
[8] = test system: UACC-257
[9] = test system: ACHN
[10] = test system: HOP-92
[11] = test system: CAKI-1
[12] = test system: TK-10
[13] = test system: OVCAR-4
[14] = test system: RPMI-8226
[15] = test system: NCI-H522
[16] = test system: A498
[17] = test system: EKVX

SMILES | GI50 [1] | GI50 [2] | GI50 [3] | GI50 [4] | GI50 [5] | GI50 [6] | GI50 [7] | GI50 [8] | GI50 [9] | GI50 [10] | GI50 [11] | GI50 [12] | GI50 [13] | GI50 [14] | GI50 [15] | GI50 [16] | GI50 [17]
Cc1ccc(OCC(=O)N2N=C(c3ccccc3)CC2(O)c2ccccc2)cc1 (configuration not stated) | 99.5 µM (inactive) | 43 µM (inactive) | > 100 µM (inactive) | 51.6 µM (inactive) | > 100 µM (inactive) | 27.8 µM (inactive) | 80 µM (inactive) | > 100 µM (inactive) | > 100 µM (inactive) | 55.2 µM (inactive) | > 100 µM (inactive) | > 100 µM (inactive) | 18.5 µM (inactive) | 16.6 µM (inactive) | > 100 µM (inactive) |  | 
COC1=CC(=O)NCCN1 | > 100 µM (inactive) | > 100 µM (inactive) | 74.3 µM (inactive) | 18.2 µM (inactive) | > 100 µM (inactive) | 21 µM (inactive) | > 100 µM (inactive) | > 100 µM (inactive) | > 100 µM (inactive) | > 100 µM (inactive) | > 100 µM (inactive) | > 100 µM (inactive) | > 100 µM (inactive) |  | > 100 µM (inactive) | > 100 µM (inactive) | > 100 µM (inactive)
O=C(NCCOC(=O)CCCCCCCCC(=O)OCCNC(=O)NC(=O)c1cn(Cc2ccccc2)c(=O)[nH]c1=O)NC(=O)c1cn(Cc2ccccc2)c(=O)[nH]c1=O | > 100 µM (inactive) | > 100 µM (inactive) | > 100 µM (inactive) | > 100 µM (inactive) | > 100 µM (inactive) | > 100 µM (inactive) | > 100 µM (inactive) | > 100 µM (inactive) | > 100 µM (inactive) |  | > 100 µM (inactive) | > 100 µM (inactive) | > 100 µM (inactive) | > 100 µM (inactive) | > 100 µM (inactive) | > 100 µM (inactive) | > 100 µM (inactive)
Cc1ccc(NC(=O)c2cc3cc(/N=N/c4ccc(Br)cc4)ccc3oc2=O)cc1 | 47.6 µM (inactive) |  | 46.9 µM (inactive) | 86.9 µM (inactive) |  | 23.4 µM (inactive) | > 100 µM (inactive) | > 100 µM (inactive) | 53 µM (inactive) | > 100 µM (inactive) | 30.5 µM (inactive) | > 100 µM (inactive) | > 100 µM (inactive) | > 100 µM (inactive) | > 100 µM (inactive) | 46.3 µM (inactive) | 
Nc1nc(=O)n(C2CC(O)C(O)C(CO)O2)cc1F (configuration not stated) |  | > 100 µM (inactive) | > 100 µM (inactive) | > 100 µM (inactive) | > 100 µM (inactive) | > 100 µM (inactive) | > 100 µM (inactive) | > 100 µM (inactive) | > 100 µM (inactive) |  |  | > 100 µM (inactive) | > 100 µM (inactive) | > 100 µM (inactive) | > 100 µM (inactive) | > 100 µM (inactive) | > 100 µM (inactive)
N#Cc1ccccc1NC(=O)C(=O)C(C(=O)c1ccccc1-c1ccccc1)C1OC(=O)c2ccccc21 (configuration not stated) | 18.1 µM (inactive) | 10.7 µM (inactive) | 11 µM (inactive) | 29 µM (inactive) | > 10 µM (inactive) | 14 µM (inactive) | 18.2 µM (inactive) | 15.2 µM (inactive) | 53.6 µM (inactive) | 20 µM (inactive) |  | > 10 µM (inactive) |  | 11.7 µM (inactive) | 7.73 µM (inactive) | 25.4 µM (inactive) | 18.5 µM (inactive)
N#Cc1nn(-c2ccc(Cl)cc2)c(=N)c2c(N)n3nc(-c4ccccc4)cc3nc12 | < 0.01 µM (active) | 0.497 µM (active) | 1 µM (active) | > 100 µM (inactive) |  | > 100 µM (inactive) | 1 µM (active) | 1 µM (active) | 1 µM (active) | 0.546 µM (active) | 1 µM (active) | > 100 µM (inactive) | 0.857 µM (active) | 1 µM (active) |  | 1 µM (active) | 1 µM (active)
COC(=O)c1ncc2c(=O)[nH]c3ccccc3c2c1C(=O)OC | > 100 µM (inactive) | > 100 µM (inactive) | > 100 µM (inactive) | > 100 µM (inactive) | > 100 µM (inactive) | > 100 µM (inactive) | > 100 µM (inactive) | > 100 µM (inactive) | > 100 µM (inactive) | > 100 µM (inactive) | > 100 µM (inactive) | > 100 µM (inactive) | > 100 µM (inactive) | > 100 µM (inactive) |  | > 100 µM (inactive) | > 100 µM (inactive)
CCOC(=O)NC(=O)c1cn(CCCOC(=O)CCCCCCCCC(=O)OCCCn2cc(C(=O)NC(=O)OCC)c(=O)[nH]c2=O)c(=O)[nH]c1=O |  | 23.8 µM (inactive) | 24.2 µM (inactive) | 15 µM (inactive) |  | 5.14 µM (inactive) | 16.4 µM (inactive) | 16.9 µM (inactive) | 21.1 µM (inactive) |  | 7.28 µM (inactive) | 22.3 µM (inactive) | 4.41 µM (inactive) | 5.22 µM (inactive) |  | 21.7 µM (inactive) | 38.1 µM (inactive)
CC1(C)OC(=O)[C@@](C)([C@H](O)c2ccccc2)O1 | > 100 µM (inactive) | > 100 µM (inactive) | 93.8 µM (inactive) | > 100 µM (inactive) | > 100 µM (inactive) | 32.6 µM (inactive) | > 10 µM (inactive) | > 100 µM (inactive) | > 100 µM (inactive) | 28.6 µM (inactive) | 46.3 µM (inactive) | > 100 µM (inactive) | > 100 µM (inactive) |  | 67 µM (inactive) | > 100 µM (inactive) | > 100 µM (inactive)
O=C(O)c1ccccc1C1c2ccc(Cl)cc2Oc2cc(Cl)ccc21 | > 100 µM (inactive) | > 100 µM (inactive) |  | > 100 µM (inactive) | > 100 µM (inactive) | > 100 µM (inactive) | > 100 µM (inactive) | > 100 µM (inactive) | > 100 µM (inactive) | > 100 µM (inactive) | > 100 µM (inactive) | > 100 µM (inactive) | > 100 µM (inactive) | > 100 µM (inactive) | > 100 µM (inactive) |  | > 100 µM (inactive)
CCOP1(=O)C=C(C)C(=C(Cl)Cl)C(C)=C1 (configuration not stated) | 1.71 µM (inactive) | 18.1 µM (inactive) | 2.51 µM (inactive) | 7.45 µM (inactive) | 13.9 µM (inactive) | 3.33 µM (inactive) | 22.5 µM (inactive) | 3.54 µM (inactive) | 17.1 µM (inactive) |  | 11.6 µM (inactive) | 21.3 µM (inactive) | 15.2 µM (inactive) | 3.29 µM (inactive) | 3.58 µM (inactive) | 19.2 µM (inactive) | 18.9 µM (inactive)
CC(=O)Nc1ccc(-c2nnc(SCC(=O)Nc3cccc(C)c3)o2)cc1 | 10.8 µM (inactive) | 14.5 µM (inactive) | 11.8 µM (inactive) | 12.8 µM (inactive) | 13.2 µM (inactive) | 19.5 µM (inactive) | 13.8 µM (inactive) | 12.3 µM (inactive) | 10.7 µM (inactive) | 13 µM (inactive) | 16.7 µM (inactive) | 15.8 µM (inactive) | 16 µM (inactive) | 13.8 µM (inactive) | 4.4 µM (inactive) |  | 
CN(C)CC(/C(Cc1ccccc1)=N\NC(=O)C[n+]1ccccc1)c1ccccc1 (configuration not stated) | > 100 µM (inactive) | > 100 µM (inactive) | > 100 µM (inactive) |  | > 100 µM (inactive) | > 100 µM (inactive) | > 100 µM (inactive) | > 100 µM (inactive) | > 100 µM (inactive) | > 100 µM (inactive) | > 100 µM (inactive) | > 100 µM (inactive) | > 100 µM (inactive) |  | 80.9 µM (inactive) | > 100 µM (inactive) | > 100 µM (inactive)
CCOCN1COCN/C1=N/C#N | > 100 µM (inactive) | > 100 µM (inactive) | > 100 µM (inactive) | 17.9 µM (inactive) | > 100 µM (inactive) | > 100 µM (inactive) | > 100 µM (inactive) | > 100 µM (inactive) | > 100 µM (inactive) | > 100 µM (inactive) | > 100 µM (inactive) | > 100 µM (inactive) | > 100 µM (inactive) |  | > 100 µM (inactive) | > 100 µM (inactive) | > 100 µM (inactive)
CC(C)CCCC(C)[C@H]1CCC2[C@@H]3CCC4Nc5c(cnn5-c5ccccc5)C[C@]4(C)C3CC[C@@]21C (some centres not stated) | 29.6 µM (inactive) | 12.9 µM (inactive) | 51.6 µM (inactive) | 21.5 µM (inactive) | 15 µM (inactive) | 4.67 µM (inactive) |  | 44.5 µM (inactive) | 29.8 µM (inactive) |  | 5.11 µM (inactive) | > 100 µM (inactive) | 25.6 µM (inactive) | 3.61 µM (inactive) | 43.1 µM (inactive) | 89.5 µM (inactive) | 7.52 µM (inactive)
COc1cccc(/C=C\c2cc(OC)c(OC)c(OC)c2)c1 | 0.543 µM (active) | 0.753 µM (active) | 0.548 µM (active) | 0.656 µM (active) | 4.48 µM (inactive) |  | 0.507 µM (active) | 0.505 µM (active) | 5.79 µM (inactive) | 22.6 µM (inactive) | 0.887 µM (active) |  | 14.4 µM (inactive) | 0.845 µM (active) | 0.375 µM (active) |  | 3.49 µM (inactive)
Cc1cc(C)c(C(=O)/C=C/c2ccccc2)c(C)c1 | 35.2 µM (inactive) | > 10 µM (inactive) | 24.8 µM (inactive) | 23 µM (inactive) | 52.4 µM (inactive) | 25.9 µM (inactive) | > 10 µM (inactive) | 33.8 µM (inactive) | 38.4 µM (inactive) | 19.1 µM (inactive) | 36.5 µM (inactive) | 47.5 µM (inactive) | 22.8 µM (inactive) | 29.8 µM (inactive) | 19.1 µM (inactive) |  | 40.4 µM (inactive)
